In patent US10847829B2, “Quinone and hydroquinone based flow battery” (President and Fellows of Harvard College, priority 2013, dated 2020):

Key:
Cyclic voltammetry (CV) = format: physicochemical; conditions: about 1 mM in 1M sulfuric acid in water
Procedure: [drawing 47] (concentration about 1 mM in 1M sulfuric acid in water) was studied by cyclic voltammetry (CV).
[drawing 48] (concentration about 1 mM in 1M sulfuric acid in water) was studied by CV.
[drawing 50] (concentration about 1 mM in 1M sulfuric acid in water) was studied by CV.
[drawing 53] (concentration about 1 mM in 1M sulfuric acid in water) was studied by CV.

Solubility = format: physicochemical; conditions: pH 0

Row | Molecule | redox peaks location, higher-potential set (Cyclic voltammetry (CV)) | redox peaks location, lower-potential set (Cyclic voltammetry (CV)) | solubility (Solubility)
1 | O=C1c2ccccc2C(=O)c2c(O)c(SCCS(=O)(=O)O)c(SCCS(=O)(=O)O)c(O)c21 [Example 6, 2,2′-((1,4-dihydroxy-9,10-dioxo-9,10-dihydroanthracene-2,3-diyl)bis(sulfanediyl))bis(ethane-1-sulfonic acid)] | ~1.08 V | ~0.11 V | 
2 | O=C1c2ccccc2C(=O)c2c1cc(S(=O)(=O)O)c(O)c2O [Example 3, 1,2-dihydroxy-9,10-anthraquinone-3-sulfonic acid] | ~1.3 V | ~0.10 V | 
3 | 9,10-anthraquinone-2,7-disulfonate [Scheme 1 ID 1] |  |  | ~1000 mM
4 | O=C1c2ccccc2C(=O)c2c(O)c(S(=O)(=O)O)cc(O)c21 [Example 2, 1,4-dihydroxy-9,10-anthraquinone-3-sulfonic acid] | ~1.08 V | ~0.11 V | 
